Experimental data as given in patent publication US20100292188A1, “Compounds Comprising A Cyclobutoxy Group” (UCB PHARMA S.A., priority 2008, published 2010).

SMILES	melting point [°C]
O[C@H]1C[C@@H](N2CCc3nc(-c4ccc(O[C@H]5C[C@H](N6CCCCC6)C5)cc4)sc3C2)C1 [Compound 24, cis-3-[2-{4-[(trans-3-piperidin-1-ylcyclobutyl)oxy]phenyl}-6,7-dihydro[1,3]thiazolo[5,4-c]pyridin-5(4H)-yl]cyclobutanol]	169
CC(=O)N1CCc2nc(-c3ccc(O[C@H]4C[C@H](N5CCCCC5)C4)cc3F)sc2C1 [Compound 36, 5-acetyl-2-{2-fluoro-4-[(trans-3-piperidin-1-ylcyclobutyl)oxy]phenyl}-4,5,6,7-tetrahydro[1,3]thiazolo[5,4-c]pyridine]	142.8
CCOC(=O)C(=O)N1CCc2nc(-c3ccc(O[C@H]4C[C@H](N5CCCCC5)C4)cc3)sc2C1 [Compound 49, ethyl oxo[2-{4-[(trans-3-piperidin-1-ylcyclobutyl)oxy]phenyl}-6,7-dihydro[1,3]thiazolo[5,4-c]pyridin-5(4H)-yl]acetate]	145 to 146
NC(=O)N1CCc2sc(-c3ccc(O[C@H]4C[C@H](N5CCCCC5)C4)cc3)nc2C1 [Compound 64, 2-{4-[(trans-3-piperidin-1-ylcyclobutyl)oxy]phenyl}-6,7-dihydro[1,3]thiazolo[4,5-c]pyridine-5(4H)-carboxamide]	214.3
O=C(CO)N1CCc2sc(-c3ccc(O[C@H]4C[C@H](N5CCCCC5)C4)cc3)nc2C1 [Compound 63, 2-oxo-2-[2-{4-[(trans-3-piperidin-1-ylcyclobutyl)oxy]phenyl}-6,7-dihydro[1,3]thiazolo[4,5-c]pyridin-5(4H)-yl]ethanol]	155.3
CC(=O)N1CCc2nc(-c3ccc(O[C@H]4C[C@H](N5CCCCC5)C4)cc3)sc2C1 [Compound 4, 5-acetyl-2-{4-[(trans-3-piperidin-1-ylcyclobutyl)oxy]phenyl}-4,5,6,7-tetrahydro[1,3]thiazolo[5,4-c]pyridine]	170.3
c1cc(-c2nc3c(s2)CNCC3)ccc1O[C@H]1C[C@H](N2CCCCC2)C1 [Compound 5, 2-{4-[(trans-3-piperidin-1-ylcyclobutyl)oxy]phenyl}-4,5,6,7-tetrahydro[1,3]thiazolo[5,4-c]pyridine]	144.5
NC(=O)NCC(=O)N1CCc2nc(-c3ccc(O[C@H]4C[C@H](N5CCCCC5)C4)cc3)sc2C1 [Compound 52, 1-{2-oxo-2-[2-{4-[(trans-3-piperidin-1-ylcyclobutyl)oxy]phenyl}-6,7-dihydro[1,3]thiazolo[5,4-c]pyridin-5(4H)-yl]ethyl}urea]	209 to 210
O=C(C1CCOCC1)N1CCc2nc(-c3ccc(O[C@H]4C[C@H](N5CCCCC5)C4)cc3)sc2C1 [Compound 45, 2-{4-[(trans-3-piperidin-1-ylcyclobutyl)oxy]phenyl}-5-(tetrahydro-2H-pyran-4-ylcarbonyl)-4,5,6,7-tetrahydro[1,3]thiazolo[5,4-c]pyridine]	175 to 176
O=C(N1CCc2nc(-c3ccc(O[C@H]4C[C@H](N5CCCCC5)C4)cc3)sc2C1)C1(O)CC1 [Compound 46, 1-{[2-{4-[(trans-3-piperidin-1-ylcyclobutyl)oxy]phenyl}-6,7-dihydro[1,3]thiazolo[5,4-c]pyridin-5(4H)-yl]carbonyl}cyclopropanol]	178
CC(=O)N1CCc2nc(-c3ccc(O[C@H]4C[C@H](N5CCN(C6CCCC6)CC5)C4)cc3)sc2C1 [Compound 51, 5-acetyl-2-(4-{[trans-3-(4-cyclopentylpiperazin-1-yl)cyclobutyl]oxy}phenyl)-4,5,6,7-tetrahydro[1,3]thiazolo[5,4-c]pyridine]	145.7 to 146.1
O=S(=O)(N1CCOCC1)N1CCc2nc(-c3ccc(O[C@H]4C[C@H](N5CCCCC5)C4)cc3)sc2C1 [Compound 7, 5-(morpholin-4-ylsulfonyl)-2-{4-[(trans-3-piperidin-1-ylcyclobutyl)oxy]phenyl}-4,5,6,7-tetrahydro[1,3]thiazolo[5,4-c]pyridine]	178
